Data set [1] concerns the target T1, human metastin receptor hOT7T175 (Homo sapiens, UniProt Q969F8, L364H).
T1 construct: encoding the entire length of human metastin receptor hOT7T175; expressed in transfected cells; host or cells: CHO/dhFr- cells (ATCC #CRL-9096) stably transfected with pAKKO-hOT7T175; clone h175-16 was used as whole cells for FLIPR
Kind of data set: binding inhibiting activity: 125I-metastin (40-54) binding to cell membrane fraction of h175 KB34 cells. To be noted: room temperature 60 minutes, read-out: binding inhibiting activity, represented by the IC50 value. The gist of the method:
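Membranes came from CHO/dhfr− cells stably expressing human hOT7T175 (clone h175 KB34) and were diluted 250-fold for use. Binding of 125I-metastin (40-54) was run in 20 mM Tris, 2.5 mM magnesium acetate and 2 mM EGTA, pH 7.4, with protease inhibitors, either without BSA or with 1 mg/ml BSA.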

Data set [2] has as its target T1, human metastin receptor hOT7T175. Kind of data set: FLIPR assay of metastin-induced change in intracellular calcium in h175-16 cells (antagonist activity). It counts as cell-based. To be noted: human metastin (40-54) as ligand, Fluo-3 fluorescence. The procedure:
cDNA fragments (SEQ ID NO: 2) encoding the entire length of human metastin receptor hOT7T175 were incorporated into expression vector pAKKO1.11H to produce animal cell expression plasmids pAKKO-hOT7T175. CHO/dhFr-cells (ATCC, #CRL-9096) were seeded onto 6 cm culture dishes (Becton Dickinson) at a density of 0.3×10^6 cells/dish, and cultured in the conditions of 48 hours, 37° C. and 5% CO2. 5 μg pAKKO-hOT7T175 plasmid DNA was transfected to the resultant cells by a known method (described in Example 3 of WO 00/24890) using the Cellphect Transfection Kit (Amersham, #27-9268-01). The DNA-transfected cells were cultured in the Dulbecco's modified Eagle medium (DMEM) (Sigma, #D6046) containing 10% dialyzed FBS (Biowest, #S180D), 1× Non-Essential Amino Acid (Invitrogen, #11140-050) and 50 μg/ml Gentamycin (Invitrogen, #15750-060; and cell strains stably expressing the plasmid genes were selected. The obtained 41 clones were treated with the FLIPR assay (in accordance with the method described in Example 3 of WO 00/24890), and the reactivity to the human metastin […] (Nos. 40 to 54 of the human metastin sequence; Peptide Institute, Inc., #4389-v) was evaluated. In the end, h175 KB34 cell strains were selected. By substantially the same method, h175-16 cell strains were also produced.
The h175-16 cell strains prepared in Test Example 1 were seeded onto a 96-well plate (Corning, #3904) at 3×10^4 cell/well, and cultured for 24 hours on a CO2 incubator (cell seeding plate).
A calcium kit buffer containing 0.1% BSA [20 mM HEPES, 115 mM NaCl, 5.4 mM KCl, 0.8 mM MgCl2, 1.8 mM CaCl2, 13.8 mM D-glucose, pH 7.4, with an attached calcium kit produced by Dojin] was prepared and kept warm at 37° C. Then, the medium in the wells of the cell seeding plate was removed, and […] of the calcium kit buffer was added to each well. 50 μl 250 mM Probenecid (with an attached calcium kit produced by Dojin), 80 μl 5% Pluronic F-127 (with an attached calcium kit produced by Dojin) and 25 μl Fluo-3 AM (powder with an attached calcium kit produced by Dojin was dissolved in DMSO at 1 mg/ml) were added to the calcium kit buffer containing 5 ml 0.1% BSA (an amount for measuring one plate) to prepare a loading solution. 50 μl of the loading solution was added to each well to allow a reaction at 37° C. for 1 hour. Thus, Fluo-3 AM was loaded onto the cells. Then, the solution in each well was removed, and 100 μl of the calcium kit buffer containing 1.25 mM Probenecid and 0.1% BSA was added to each well.
50 μl of a test compound diluted with the calcium kit buffer containing 0.1% BSA was added to each well, and stirred by a plate shaker. A cell plate, and a ligand plate provided with human metastin (40-54) (AnyGen) diluted to 400 μM with the calcium kit buffer containing 0.1% BSA, were set to the Fluorometric Imaging Plate Reader (FLIPR, Molecular Devices), and […] was added to each well using an automatic divider in the FLIPR. A change in the calcium concentration in the cells, which corresponded to the ligand response, was measured by a CCD camera in the FLIPR as a change in the amount of fluorescence of Fluo-3. The obtained change in the amount of fluorescence was plotted against the concentration of the test compound, and the compound concentration at which 50% of the change in the amount of fluorescence (i.e., IC50 value) was inhibited was calculated.
On the technique in general: Calcium assays in cells follow changes in intracellular calcium, usually with a dye or a luminescent sensor.

For another data set, the system named is blood LH level. Kind of data set: Suppression of the blood LH level of castrated rats. To be noted: male castrated Wistar rats. Format: in vivo, rat. How it is done: The compound of Example 303 was intravenously administered to male castrated rats, and the blood LH level was measured. Male Wistar rats (Japan SLC, Inc.), which were castrated 7 days before the experiment and were 11 weeks old at the time of the experiment, were used. […] To the control animals (n=8), only 20% DMSO-[…]% PEG400 used as a dispersion medium was intravenously administered in an amount of 0.8 ml/kg every 10 minutes, 5 times in succession. […] The LH concentration in the plasma was measured by radioimmunoassay. […] The start time of the administration was set to 0 (represented with the arrow).

15 compounds from patent US20090156646A1, “PYRIDYLPHENOL COMPOUND AND USE THEREOF” (TAKEDA PHARMACEUTICAL COMPANY LIMITED, priority 2005, published 2009) can be followed below.

As usually defined, the IC50 is the concentration that gives 50% inhibition. One may read the melting point as the temperature of the solid-liquid transition.

Counter-ions that a name gives are not always drawn. A value given as a limit tells only on which side of the number the result lay.

T1 sequence (Q969F8 whole entry L364H): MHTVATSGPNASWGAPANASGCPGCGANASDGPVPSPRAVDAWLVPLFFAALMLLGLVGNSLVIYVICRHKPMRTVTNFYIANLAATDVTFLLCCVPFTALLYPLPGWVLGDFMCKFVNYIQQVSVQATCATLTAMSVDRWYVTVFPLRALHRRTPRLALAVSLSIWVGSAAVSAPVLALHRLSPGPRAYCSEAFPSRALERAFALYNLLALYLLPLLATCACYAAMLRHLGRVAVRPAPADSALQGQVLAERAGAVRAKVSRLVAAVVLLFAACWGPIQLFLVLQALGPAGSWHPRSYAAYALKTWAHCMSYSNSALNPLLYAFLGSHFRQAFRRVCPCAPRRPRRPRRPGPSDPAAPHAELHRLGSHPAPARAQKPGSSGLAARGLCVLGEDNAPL

For `N#Cc1c(-c2cccc(NC(=O)CCCN)c2)cc(-c2ccccc2O)nc1NC(=O)c1cccs1` [Example 23, N-[4-{3-[(4-aminobutanoyl)amino]phenyl}-3-cyano-6-(2-hydroxyphenyl)pyridin-2-yl]thiophene-2-carboxamide dihydrochloride], the half-maximal inhibitory concentration (IC50) in data set [1] and in data set [2] was ≤ 10 µM throughout.
Regarding `NCCC(=O)Nc1cccc(-c2cc(NC(=O)c3cccs3)nc(-c3ccccc3O)c2)c1` [Example 27, N-{4-[3-(β-alanylamino)phenyl]-6-(2-hydroxyphenyl)pyridin-2-yl}thiophene-2-carboxamide dihydrochloride], the IC50 in data set [1] and in data set [2] was ≤ 10 µM in each case.
Regarding `Cl.N#Cc1c(-c2cccc(N3CCNCC3)c2)cc(-c2ccc(F)cc2O)nc1NC(=O)c1ccco1` [Example 303, N-[3-cyano-6-(4-fluoro-2-hydroxyphenyl)-4-(3-piperazin-1-ylphenyl)pyridin-2-yl]-2-furamide hydrochloride], the 50% inhibitory concentration (IC50) in data set [1] was ≤ 10 µM. For the same compound, the “blood LH concentration, % of that of the control group” value in the data set with blood LH level (intravenous 0.22 mg/kg every 10 minutes 5 times, 60 minutes after the start of administration, P<0.01) stood at 68%. Further, the “effect on blood LH concentration (in words)” value in the data set on blood LH level (intravenously administered) is recorded as “significantly decreasing the blood LH concentration”.
With `Cl.N#Cc1c(-c2cccc(NC(=O)CCN)c2)cc(-c2ccccc2O)nc1NC(=O)c1cccs1` [Example 14, N-{4-[3-(β-alanylamino)phenyl]-3-cyano-6-(2-hydroxyphenyl)pyridin-2-yl}thiophene-2-carboxamide hydrochloride], the melting point was 223 to 228 °C. The IC50 in data set [1] was ≤ 10 µM. Also, the IC50 in data set [2] is ≤ 10 µM.
For the compound `CCCN(CCC)C(C)CC(=O)Nc1cccc(-c2cc(-c3ccc(F)cc3O)nc(NC(=O)c3ccco3)c2C#N)c1.Cl` (stereo not drawn) [Example 318, N-[3-cyano-4-(3-{[3-(dipropylamino)butanoyl]amino}phenyl)-6-(4-fluoro-2-hydroxyphenyl)pyridin-2-yl]-2-furamide hydrochloride], the melting point lay in the range of 198 to 200 °C. The IC50 in data set [1] is ≤ 10 µM.
Taken in the same sequence, the figures for `CN(C)Cc1cccc(-c2cc(-c3ccccc3O)nc(NC(=O)c3cccs3)c2C#N)c1` [Example 2, N-[3-cyano-4-{3-[(dimethylamino)methyl]phenyl}-6-(2-hydroxyphenyl)pyridin-2-yl]thiophene-2-carboxamide] were 225 to 226 °C and ≤ 10 µM.
The matching figures for `N#Cc1c(-c2cccc(CN)c2)cc(-c2ccccc2O)nc1NC(=O)c1cccs1` [Example 1, N-[4-[3-(aminomethyl)phenyl]-3-cyano-6-(2-hydroxyphenyl)pyridin-2-yl]thiophene-2-carboxamide]: 203 to 205 °C and ≤ 10 µM.
The matching figures for `CCN(C)CCC(=O)Nc1cccc(-c2cc(-c3ccc(F)cc3O)nc(NC(=O)c3ccco3)c2C#N)c1.Cl` [Example 316, N-[3-cyano-4-{3-[(N-ethyl-N-methyl-β-alanyl)amino]phenyl}-6-(4-fluoro-2-hydroxyphenyl)pyridin-2-yl]-2-furamide hydrochloride]: 223 to 224 °C and ≤ 10 µM.
Regarding `CCN1CCC[C@H]1CC(=O)Nc1cccc(-c2cc(-c3ccc(F)cc3O)nc(NC(=O)c3ccco3)c2C#N)c1.Cl` [Example 336, N-[3-cyano-4-[3-({[(2S)-1-ethylpyrrolidin-2-yl]acetyl}amino)phenyl]-6-(4-fluoro-2-hydroxyphenyl)pyridin-2-yl]-2-furamide hydrochloride], the melting point was 182 to 187 °C. For the same compound, the IC50 in data set [1] was ≤ 10 µM.
The matching figures for `Cl.N#Cc1c(-c2cccc(NC(=O)[C@H]3CCCN3)c2)cc(-c2ccc(Cl)cc2O)nc1NC(=O)c1ccco1` [Example 296, N-{3-[6-(4-chloro-2-hydroxyphenyl)-3-cyano-2-(2-furoylamino)pyridin-4-yl]phenyl}-D-prolinamide hydrochloride]: 208 to 213 °C and ≤ 10 µM.
Taken in the same sequence, the figures for `Cl.N#Cc1c(-c2cccc(C(=O)NCCCn3ccnc3)c2)cc(-c2ccc(F)cc2O)nc1NC(=O)c1ccco1` [Example 67, N-{3-cyano-6-(4-fluoro-2-hydroxyphenyl)-4-[3-({[3-(1H-imidazole-1-yl)propyl]amino}carbonyl)phenyl]pyridin-2-yl}-2-furamide hydrochloride] were 173 to 174 °C and ≤ 10 µM.
The matching figures for `Cl.N#Cc1c(-c2cccc(C(=O)NCCN)c2)cc(-c2ccc(Cl)cc2O)nc1NC(=O)c1nccs1` [Example 249, N-[4-(3-{[(2-aminoethyl)amino]carbonyl}phenyl)-6-(4-chloro-2-hydroxyphenyl)-3-cyanopyridin-2-yl]-1,3-thiazole-2-carboxamide hydrochloride]: 242 to 244 °C and ≤ 10 µM.
Compound `Cl.N#Cc1c(-c2cccc(C(=O)NCCN)c2)cc(-c2ccccc2O)nc1NC(=O)c1cccs1` [Example 3, N-[4-(3-{[(2-aminoethyl)amino]carbonyl}phenyl)-3-cyano-6-(2-hydroxyphenyl)pyridin-2-yl]thiophene-2-carboxamide hydrochloride] yielded a melting point of 203 to 210 °C. Further, in data set [1], the IC50 was ≤ 10 µM. In data set [2], the IC50 was ≤ 10 µM.
The compound `CC(C)NC(C)CC(=O)Nc1cccc(-c2cc(-c3ccc(F)cc3O)nc(NC(=O)c3ccco3)c2C#N)c1.Cl` (stereo not drawn) [Example 321, N-[3-cyano-6-(4-fluoro-2-hydroxyphenyl)-4-(3-{[3-(isopropylamino)butanoyl]amino}phenyl)pyridin-2-yl]-2-furamide hydrochloride] showed a melting point of 197 to 199 °C. In addition, the IC50 in data set [1] is ≤ 10 µM.
In the case of `N#Cc1c(-c2cccc(NC(=O)CN)c2)cc(-c2ccccc2O)nc1NC(=O)c1cccs1` [Example 12, N-[3-cyano-4-[3-(glycylamino)phenyl]-6-(2-hydroxyphenyl)pyridin-2-yl]thiophene-2-carboxamide dihydrochloride], the IC50 in data set [1] and in data set [2] was ≤ 10 µM in each case.
